The record followed here is patent publication US11739098B2 (BRISTOL-MYERS SQUIBB COMPANY, priority 2017, dated 2023).

What all share (format): cell-based
For one test, the target named is T1, human TLR7 (Homo sapiens, UniProt Q9NYK1).
T1 construct: host or cells: HEK-Blue cells (HEK293-derived reporter line)
T1 sequence (Q9NYK1 27-1049): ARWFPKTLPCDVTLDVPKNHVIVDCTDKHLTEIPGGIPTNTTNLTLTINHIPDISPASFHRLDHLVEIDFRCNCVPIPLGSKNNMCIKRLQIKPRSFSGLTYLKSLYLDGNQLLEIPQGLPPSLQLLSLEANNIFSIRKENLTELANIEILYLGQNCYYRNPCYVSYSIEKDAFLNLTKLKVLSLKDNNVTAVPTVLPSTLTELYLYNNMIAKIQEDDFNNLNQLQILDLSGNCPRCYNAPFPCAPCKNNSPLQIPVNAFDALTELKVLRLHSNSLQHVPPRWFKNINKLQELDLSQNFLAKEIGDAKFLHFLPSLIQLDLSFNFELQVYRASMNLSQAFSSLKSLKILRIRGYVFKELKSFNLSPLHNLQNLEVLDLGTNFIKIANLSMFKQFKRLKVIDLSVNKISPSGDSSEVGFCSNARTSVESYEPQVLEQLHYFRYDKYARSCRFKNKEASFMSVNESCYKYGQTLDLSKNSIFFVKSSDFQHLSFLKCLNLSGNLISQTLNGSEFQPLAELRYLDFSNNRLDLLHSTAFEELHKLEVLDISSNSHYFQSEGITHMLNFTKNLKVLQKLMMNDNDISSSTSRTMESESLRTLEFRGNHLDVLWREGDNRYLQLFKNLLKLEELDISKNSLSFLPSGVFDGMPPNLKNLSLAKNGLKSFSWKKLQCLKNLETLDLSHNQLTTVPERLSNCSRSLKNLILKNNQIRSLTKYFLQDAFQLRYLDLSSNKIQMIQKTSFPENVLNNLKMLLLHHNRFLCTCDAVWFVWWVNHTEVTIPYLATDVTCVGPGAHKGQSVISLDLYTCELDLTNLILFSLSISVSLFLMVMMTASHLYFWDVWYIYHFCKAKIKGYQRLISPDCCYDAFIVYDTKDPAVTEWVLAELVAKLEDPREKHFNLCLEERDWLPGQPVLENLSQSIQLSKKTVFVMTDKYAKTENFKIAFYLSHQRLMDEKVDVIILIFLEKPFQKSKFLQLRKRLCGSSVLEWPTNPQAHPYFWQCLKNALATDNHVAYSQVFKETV
The test can be described thus: TLR7 inhibition reporter assay (HEK-Blue cells, SEAP reporter, gardiquimod stimulation). As to conditions: HEK-Blue cells overexpressing human TLR7, SEAP reporter, gardiquimod 7.5 μM. In short, it runs like this: (§1)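 Percent inhibition of agonist-induced SEAP secretion in HEK-Blue cells after 22 h at 37 °C. Stimuli: 7.5 μM gardiquimod, 15.9 μM R848, 5 nM ODN2006 for TLR7, TLR8 and TLR9, added after 30 min compound exposure over a 0.05 nM–50 μM range.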
A general note: A reporter such as luciferase makes a cellular process visible.

The target of the next test is T2, human TLR8 (Homo sapiens, UniProt Q9NR97).
T2 construct: host or cells: HEK-Blue cells (HEK293-derived reporter line)
T2 sequence (Q9NR97 27-1041): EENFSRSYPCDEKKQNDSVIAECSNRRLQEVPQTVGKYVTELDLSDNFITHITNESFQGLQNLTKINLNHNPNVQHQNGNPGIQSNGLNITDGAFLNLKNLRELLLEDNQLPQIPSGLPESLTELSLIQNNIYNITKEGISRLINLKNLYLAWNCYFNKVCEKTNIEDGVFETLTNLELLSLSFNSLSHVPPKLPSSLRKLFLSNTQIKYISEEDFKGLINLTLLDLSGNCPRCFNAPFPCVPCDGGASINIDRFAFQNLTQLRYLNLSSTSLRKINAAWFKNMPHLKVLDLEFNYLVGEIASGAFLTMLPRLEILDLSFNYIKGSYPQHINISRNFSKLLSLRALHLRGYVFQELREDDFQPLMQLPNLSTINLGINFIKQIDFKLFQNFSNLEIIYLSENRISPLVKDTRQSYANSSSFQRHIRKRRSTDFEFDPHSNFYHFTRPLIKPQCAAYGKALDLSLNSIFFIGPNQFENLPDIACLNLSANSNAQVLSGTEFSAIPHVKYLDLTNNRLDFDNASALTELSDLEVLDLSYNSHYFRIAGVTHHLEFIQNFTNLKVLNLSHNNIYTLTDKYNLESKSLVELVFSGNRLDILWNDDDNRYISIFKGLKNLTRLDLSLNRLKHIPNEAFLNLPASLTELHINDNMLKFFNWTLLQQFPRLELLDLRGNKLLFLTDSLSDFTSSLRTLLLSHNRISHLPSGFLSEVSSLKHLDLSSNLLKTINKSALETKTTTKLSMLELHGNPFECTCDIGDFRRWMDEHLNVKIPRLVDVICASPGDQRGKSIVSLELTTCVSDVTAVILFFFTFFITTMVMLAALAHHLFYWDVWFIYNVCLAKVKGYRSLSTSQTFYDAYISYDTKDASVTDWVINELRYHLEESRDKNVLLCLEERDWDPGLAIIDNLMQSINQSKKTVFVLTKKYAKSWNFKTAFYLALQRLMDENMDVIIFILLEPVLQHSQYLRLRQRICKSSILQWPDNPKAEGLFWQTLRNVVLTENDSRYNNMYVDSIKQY
As to the kind of experiment: TLR8 inhibition reporter assay (HEK-Blue cells, SEAP reporter, R848 stimulation). As to conditions: HEK-Blue cells overexpressing human TLR8, SEAP reporter, R848 15.9 μM. In short, it runs like this:
as §1

Another test has as its target T3, human TLR9 (Homo sapiens, UniProt Q9NR96).
T3 construct: host or cells: HEK-Blue cells (HEK293-derived reporter line)
T3 sequence (Q9NR96 26-1032): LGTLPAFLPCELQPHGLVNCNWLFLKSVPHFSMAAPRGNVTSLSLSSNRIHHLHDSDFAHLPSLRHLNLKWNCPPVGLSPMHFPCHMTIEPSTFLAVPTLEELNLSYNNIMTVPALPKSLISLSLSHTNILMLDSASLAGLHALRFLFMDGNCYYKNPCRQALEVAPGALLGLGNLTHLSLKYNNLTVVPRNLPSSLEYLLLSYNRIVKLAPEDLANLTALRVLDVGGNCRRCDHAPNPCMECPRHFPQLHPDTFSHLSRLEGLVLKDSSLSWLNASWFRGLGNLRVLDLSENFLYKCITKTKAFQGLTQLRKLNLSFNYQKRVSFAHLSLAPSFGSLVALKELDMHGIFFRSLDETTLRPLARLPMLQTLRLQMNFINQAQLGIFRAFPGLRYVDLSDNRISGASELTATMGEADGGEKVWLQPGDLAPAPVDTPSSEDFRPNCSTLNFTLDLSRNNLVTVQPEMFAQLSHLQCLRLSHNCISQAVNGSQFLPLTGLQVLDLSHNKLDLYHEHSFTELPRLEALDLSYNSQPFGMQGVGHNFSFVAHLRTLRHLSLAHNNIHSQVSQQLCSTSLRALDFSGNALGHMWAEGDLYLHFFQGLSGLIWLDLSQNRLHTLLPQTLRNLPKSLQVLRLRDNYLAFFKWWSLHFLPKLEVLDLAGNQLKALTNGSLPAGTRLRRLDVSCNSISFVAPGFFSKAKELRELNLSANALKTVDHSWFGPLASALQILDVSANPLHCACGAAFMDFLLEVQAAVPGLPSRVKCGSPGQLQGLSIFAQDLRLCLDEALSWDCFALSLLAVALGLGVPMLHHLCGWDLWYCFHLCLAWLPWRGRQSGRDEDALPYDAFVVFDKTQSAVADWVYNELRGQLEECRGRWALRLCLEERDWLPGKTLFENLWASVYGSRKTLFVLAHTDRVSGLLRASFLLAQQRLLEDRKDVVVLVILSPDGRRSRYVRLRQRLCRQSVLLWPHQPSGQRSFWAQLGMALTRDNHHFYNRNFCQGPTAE
As to the kind of experiment: TLR9 inhibition reporter assay (HEK-Blue cells, SEAP reporter, ODN2006 stimulation). As to conditions: HEK-Blue cells overexpressing human TLR9, SEAP reporter, ODN2006 5 nM. In short, it runs like this:
as §1

`CNC(=O)CN1CCC(c2ccc3[nH]c(-c4cc(C)c5oc(=O)n(C)c5c4)c(C(C)C)c3c2)CC1` [Example 336, 2-(4-(2-(3,7-dimethyl-2-oxo-2,3-dihydrobenzo[d]oxazol-5-yl)-3-isopropyl-1H-indol-5-yl)piperidin-1-yl)-N-methylacetamide]: the IC50 at human TLR7 is less than 100 nM; against human TLR8 it was 100 to 1000 nM; against human TLR9, 1000 to 50000 nM.

For `CCc1c(-c2ccnc3[nH]ncc23)[nH]c2ccc(C3CCN(Cc4coc(C)n4)CC3)cc12` [Example 917, 4-((4-(3-ethyl-2-(1H-pyrazolo[3,4-b]pyridin-4-yl)-1H-indol-5-yl)piperidin-1-yl)methyl)-2-methyloxazole], the half-maximal inhibitory concentration (IC50) against human TLR7 is 100 to 1000 nM; at human TLR8, less than 100 nM; at human TLR9, 1000 to 50000 nM.

Consider `COc1cc(-c2[nH]c3ccc(C4CCN(C(=O)CN(C)C)CC4)cc3c2C(C)C)cc2nccn12` [Example 501, 2-(dimethylamino)-1-(4-(3-isopropyl-2-(5-methoxyimidazo[1,2-a]pyridin-7-yl)-1H-indol-5-yl)piperidin-1-yl)ethan-1-one], for which the IC50 at human TLR7, against human TLR8 and at human TLR9 was 100 to 1000 nM in each case.

Regarding `Cc1c(-c2[nH]c3ccc(C4CCNCC4)cc3c2C(C)C)ccc2nnnn12` [Example 72, 6-(3-isopropyl-5-(piperidin-4-yl)-1H-indol-2-yl)-5-methyltetrazolo[1,5-a]pyridine], the IC50 was 100 to 1000 nM on human TLR7, less than 100 nM against human TLR8 and 1000 to 50000 nM at human TLR9.

For the molecule `Cc1nnn2ccc(-c3[nH]c4ccc(C5CCNCC5)cc4c3C(C)C)cc12` [Example 77, 5-(3-isopropyl-5-(piperidin-4-yl)-1H-indol-2-yl)-3-methyl-[1,2,3]triazolo[1,5-a]pyridine], the half-inhibitory concentration (IC50) on human TLR7 was less than 100 nM; against human TLR8, less than 100 nM; at human TLR9, 100 to 1000 nM.

Consider `CC(C)c1c(-c2cc(F)c3nccn3c2)[nH]c2ccc(C3CCN(CC(=O)N(C)C)CC3)cc12` [Example 408, 2-(4-(2-(8-fluoroimidazo[1,2-5a]pyridin-6-yl)-3-isopropyl-1H-indol-5-yl)piperidin-1-yl)-N,N-dimethylacetamide], for which the IC50 at human TLR7 is less than 100 nM; on human TLR8, 100 to 1000 nM; at human TLR9 it was 1000 to 50000 nM.

For the molecule `Cc1cc(-c2[nH]c3ccc(C4CCN(C(=O)CCN(C)C5CC5)CC4)cc3c2C(C)C)cn2nnnc12` [Example 623, 3-(cyclopropyl(methyl)amino)-1-(4-(3-isopropyl-2-(8-methyltetrazolo[1,5-a]pyridin-6-yl)-1H-indol-5-yl)piperidin-1-yl)propan-1-one], the half-maximal inhibitory concentration (IC50) on human TLR7 is less than 100 nM; against human TLR8, less than 100 nM; on human TLR9, 1000 to 50000 nM.

As for `CC(C)c1c(-c2ccc3cnnn3c2)[nH]c2ccc(C3CCNCC3)cc12` [Example 79, 6-(3-isopropyl-5-(piperidin-4-yl)-1H-indol-2-yl)-[1,2,3]triazolo[1,5-a]pyridine], the figures for the IC50 against human TLR7, against human TLR8 and against human TLR9 were less than 100 nM, 100 to 1000 nM and 100 to 1000 nM, respectively.

For the molecule `CC(C)c1c(-c2ccnc3cnn(C)c23)[nH]c2ccc(C3CCNCC3)cc12` [Example 43, 7-(3-isopropyl-5-(piperidin-4-yl)-1H-indol-2-yl)-1-methyl-1H-pyrazolo[4,3-b]pyridine], the IC50 is 100 to 1000 nM at human TLR7, less than 100 nM against human TLR8 and 1000 to 50000 nM against human TLR9.

`CC(C)c1c(-c2cnc3cnccn23)[nH]c2ccc(C3CCNCC3)cc12` [Example 194, 3-(3-isopropyl-5-(piperidin-4-yl)-1H-indol-2-yl)imidazo[1,2-a]pyrazine]: the values for the IC50 on human TLR7, against human TLR8 and at human TLR9 were 1000 to 50000 nM, 1000 to 50000 nM and 100 to 1000 nM, respectively.

As to `CNC(=O)CN1CCC(c2ccc3[nH]c(-c4ccn5nnc(C)c5c4)c(C(C)C)c3c2)CC1` [Example 319, 2-(4-(3-isopropyl-2-(3-methyl-[1,2,3]triazolo[1,5-a]pyridin-5-yl)-1H-indol-5-yl)piperidin-1-yl)-N-methylacetamide], the IC50 was less than 100 nM against human TLR7, less than 100 nM on human TLR8 and 1000 to 50000 nM against human TLR9.

For `CNCC(=O)N1CCC(c2ccc3[nH]c(-c4cc(F)c5nccn5c4)c(CC(F)F)c3c2)CC1` [Example 545, 1-(4-(3-(2,2-difluoroethyl)-2-(8-fluoroimidazo[1,2-a]pyridin-6-yl)-1H-indol-5-yl)piperidin-1-yl)-2-(methylamino)ethan-1-one], the IC50 against human TLR7 is less than 100 nM; against human TLR8, 1000 to 50000 nM; against human TLR9 it was 100 to 1000 nM.

On to `CC(C)c1c(-c2ccnc3[nH]ncc23)[nH]c2cc(F)c(C3CCNCC3)cc12` [Example 253, 4-(6-fluoro-3-isopropyl-5-(piperidin-4-yl)-1H-indol-2-yl)-1H-pyrazolo[3,4-b]pyridine], for which the IC50 at human TLR7 is less than 100 nM; against human TLR8, less than 100 nM; at human TLR9, 100 to 1000 nM.

As a reminder, the IC50 is the concentration at which inhibition is half-maximal. A higher IC50 goes with weaker potency in that assay.
